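Results reflect a 48-hour exposure of cells in 96-well plates to compound at five concentrations. Here, GI50 denotes the concentration required for 50% inhibition of growth.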 Active and inactive are the calls of the source. No stated cut-off is given here; in the data, active = GI50 up to about 1.1 µM and inactive = higher.
Legend:
Assay in all cases: DTP human tumour cell line panel, 48 h
LOX IMVI = test system: LOX IMVI
HCC 2998 = test system: HCC 2998
SNB-19 = test system: SNB-19
HOP-62 = test system: HOP-62
A498 = test system: A498
NCI-H522 = test system: NCI-H522
MCF7 = test system: MCF7
PC-3 = test system: PC-3
SN12C = test system: SN12C
BT-549 = test system: BT-549
COLO 205 = test system: COLO 205
UACC-257 = test system: UACC-257
SNB-75 = test system: SNB-75
CAKI-1 = test system: CAKI-1
CCRF-CEM = test system: CCRF-CEM
EKVX = test system: EKVX
OVCAR-4 = test system: OVCAR-4
RPMI-8226 = test system: RPMI-8226
SF-268 = test system: SF-268
786-0 = test system: 786-0

Row | Structure (SMILES) | GI50 (LOX IMVI) | GI50 (HCC 2998) | GI50 (SNB-19) | GI50 (HOP-62) | GI50 (A498) | GI50 (NCI-H522) | GI50 (MCF7) | GI50 (PC-3) | GI50 (SN12C) | GI50 (BT-549) | GI50 (COLO 205) | GI50 (UACC-257) | GI50 (SNB-75) | GI50 (CAKI-1) | GI50 (CCRF-CEM) | GI50 (EKVX) | GI50 (OVCAR-4) | GI50 (RPMI-8226) | GI50 (SF-268) | GI50 (786-0)
1 | Nc1ncnn2c(C3OC(CO)C(O)C3O)ccc12 (stereo not given) | 0.0201 µM (active) | 0.426 µM (active) | 0.421 µM (active) | 0.261 µM (active) | 0.155 µM (active) | 0.237 µM (active) | 0.164 µM (active) | 0.182 µM (active) | 0.195 µM (active) | 0.175 µM (active) | 0.188 µM (active) | 0.0703 µM (active) | 0.329 µM (active) | 0.235 µM (active) | 0.144 µM (active) | 0.366 µM (active) | 0.0906 µM (active) | 0.147 µM (active) | 0.236 µM (active) | 0.0766 µM (active)
2 | Cc1cccc2c1NC(=S)[C@@H]1CCCN1C2=O | > 100 µM (inactive) | > 100 µM (inactive) | > 100 µM (inactive) | > 100 µM (inactive) | > 100 µM (inactive) | > 100 µM (inactive) | > 100 µM (inactive) | > 100 µM (inactive) | > 100 µM (inactive) | > 100 µM (inactive) | > 100 µM (inactive) | > 100 µM (inactive) | 54 µM (inactive) | > 100 µM (inactive) | > 100 µM (inactive) | > 100 µM (inactive) | > 100 µM (inactive) | > 100 µM (inactive) | > 100 µM (inactive) | > 100 µM (inactive)
3 | COc1cc(OC)c2c(=O)c(O)c(-c3ccc(OC)c(OC)c3)oc2c1 | 3.78 µM (inactive) | 4.26 µM (inactive) | 10.3 µM (inactive) | 3.99 µM (inactive) | 10.3 µM (inactive) | 4.23 µM (inactive) | 4.02 µM (inactive) | 3.92 µM (inactive) | 6.28 µM (inactive) | 0.755 µM (active) | 4.84 µM (inactive) | 5.25 µM (inactive) | 7.59 µM (inactive) | 4.1 µM (inactive) | 3.1 µM (inactive) | 7.14 µM (inactive) | 0.607 µM (active) | 4.72 µM (inactive) | 4.11 µM (inactive) | 6.87 µM (inactive)

From ChEMBL document CHEMBL1201862, “PubChem BioAssay data set” (2004)
